From patent publication US20130149395A1, “Pharmaceutical Product, Method of Production and Method of Application of the Pharmaceutical Product” (priority 2010, published 2013)

Experiment: Stability of 2,2-dichloropropionic acid during prolonged storage (NMR impurity identification)
Format: physicochemical
Conditions: transforms into pyroracemic acid or alpha chloroacrylic acid
Description: The impurity identification of 2,2-dichloropropionic acid, taken as an example, has been conducted using the method of NMR spectroscopy on the ^1H and ^13C nuclei, one of the most informative methods, which allows to determine the composition of each impurity even if the numerous related compounds are found in the sample.

CC(Cl)(Cl)C(=O)O [2,2-dichloropropionic acid]
Stability to daylight and prolonged storage: daylight-sensitive
